Experiments:
L1210 (murine leukemia) = assay: Cytotoxicity on tumour cell lines, L1210 (murine leukemia); format: cell-based; conditions: Mus musculus, exposure time 72 h
Description: (§1) Standard conditions: basal medium=RPMI 1640+20 mM HEPES+2 mM L-glutamine.

A121 (Human ovarian) = assay: Cytotoxicity on tumour cell lines, A121 (Human ovarian); format: cell-based; conditions: exposure time 72 h
Description: as §1

A549 (Human NSCLC) = assay: Cytotoxicity on tumour cell lines, A549 (Human NSCLC); format: cell-based; conditions: exposure time 72 h
Description: as §1

HT-29 (Human colon) = assay: Cytotoxicity on tumour cell lines, HT-29 (Human colon); format: cell-based; conditions: exposure time 72 h
Description: as §1

MCF7 (Human breast) = assay: Cytotoxicity on tumour cell lines, MCF7 (Human breast); format: cell-based; conditions: exposure time 72 h
Description: as §1

tumours [1] = assay: cytotoxic and antitumour activity (statement in words)
[2] = adverse effects / tolerability (statement in words); conditions: compared with paclitaxel / prior art
MCF7-ADR (resistant) = assay: cells; format: cell-based; conditions: Homo sapiens, NCI/ADR-RES, 72 h
tumours [3] = conditions: background art, cited from earlier work
[4] = clinical use, background art; cited from earlier work

| Structure (SMILES) | IC50 (L1210 (murine leukemia)) | IC50 (A121 (Human ovarian)) | IC50 (A549 (Human NSCLC)) | IC50 (HT-29 (Human colon)) | IC50 (MCF7 (Human breast)) | activity (in words) (tumours [1]) | drawbacks / tolerability [2] | IC50 (MCF7-ADR (resistant)) | induction of resistance (tumours [3]) | anticancerogenic activity (tumours [3]; different forms of human tumours) | clinical drawbacks [4] |
| --- | --- | --- | --- | --- | --- | --- | --- | --- | --- | --- | --- |
| CC(=O)O[C@H]1C(=O)[C@@]2(C)[C@H]([C@H](OC(=O)c3ccccc3)[C@]34OC(=S)O[C@H]3[C@H](OC(=O)[C@H](O)[C@H](CC(C)C)NC(=O)OC(C)(C)C)C(C)=C1C4(C)C)[C@]1(OC(C)=O)CO[C@@H]1C[C@@H]2O [Compound 5, 13-[(2R,3S)-3-tert-butoxycarbonyl-amino-2-hydroxy-3-isobutyl-propanoyl]-14β-hydroxybaccatine III 1,14-thiocarbonate] | 0.5 ± 0.1 nM | 0.8 ± 0.3 nM | 2.3 ± 0.3 nM | 0.3 ± 0.1 nM | 1.2 ± 0.2 nM | particularly active | – | – | – | – | – |
| CC(=O)O[C@H]1C(=O)[C@@]2(C)[C@H]([C@H](OC(=O)c3ccccc3)[C@]34OC(=S)O[C@H]3[C@H](OC(=O)[C@H](O)[C@H](C=C(C)C)NC(=O)OC(C)(C)C)C(C)=C1C4(C)C)[C@]1(OC(C)=O)CO[C@@H]1C[C@@H]2O [Compound 6, 13-[(2R,3S)-3-tert-butoxycarbonylamino-2-hydroxy-3-isobutenyl-propanoyl]-14β-hydroxybaccatine III 1,14-thiocarbonate] | – | – | – | – | – | particularly active | – | – | – | – | – |
| CCCCCC(=O)N[C@@H](C=C(C)C)[C@@H](O)C(=O)O[C@@H]1C(C)=C2[C@@H](OC(C)=O)C(=O)[C@@]3(C)[C@H]([C@H](OC(=O)c4ccccc4)[C@@]4(OC(=S)O[C@@H]14)C2(C)C)[C@]1(OC(C)=O)CO[C@@H]1C[C@@H]3O [Compound 7, 13-[(2R,3S)-3-caproylamino-2-hydroxy-3-isobutenyl-propanoyl]-14β-hydroxybaccatine III 1,14-thiocarbonate III] | – | – | – | – | – | particularly active | – | – | – | – | – |
| CCCCCC(=O)N[C@@H](C=C(C)C)[C@@H](O)C(=O)O[C@@H]1C(C)=C2[C@@H](OC(C)=O)C(=O)[C@@]3(C)[C@H]([C@H](OC(=O)c4ccccc4)[C@@]4(OC(=N)O[C@@H]14)C2(C)C)[C@]1(OC(C)=O)CO[C@@H]1C[C@@H]3O [Compound 8, 13-[(2R,3S)-3-caproylamino-2-hydroxy-3-isobutenyl-propanoyl]-14β-hydroxybaccatine III 1,14-iminocarbonate] | 2.4 ± 0.1 nM | 1.9 ± 0.2 nM | 2.1 ± 0.3 nM | 0.5 ± 0.1 nM | 0.8 ± 0.2 nM | advantages compared with the compounds of the prior art in terms of both activity and tolerability | advantages compared with the compounds of the prior art in terms of both activity and tolerability | – | – | – | – |
| CCCCCC(=O)N[C@@H](C=C(C)C)[C@@H](O)C(=O)O[C@@H]1C(C)=C2[C@@H](OC(C)=O)C(=O)[C@@]3(C)[C@H]([C@H](OC(=O)c4ccccc4)[C@@]4(OS(=O)O[C@@H]14)C2(C)C)[C@]1(OC(C)=O)CO[C@@H]1C[C@@H]3O (stereo partly drawn) [Compound 9, 13-[(2R,3S)-3-caproylamino-2-hydroxy-3-isobutenyl-propanoyl]-14β-hydroxybaccatine-III 1,14-sulfite] | 1.8 ± 0.1 nM | 1.1 ± 0.1 nM | 1.8 ± 0.2 nM | 0.5 ± 0.1 nM | 1 ± 0.3 nM | advantages compared with the compounds of the prior art in terms of both activity and tolerability | advantages compared with the compounds of the prior art in terms of both activity and tolerability | – | – | – | – |
| CC(=O)O[C@H]1C(=O)[C@@]2(C)[C@H]([C@H](OC(=O)c3ccccc3)[C@]3(O)C[C@H](OC(=O)[C@H](O)[C@@H](NC(=O)c4ccccc4)c4ccccc4)C(C)=C1C3(C)C)[C@]1(OC(C)=O)CO[C@@H]1C[C@@H]2O [Paclitaxel, paclitaxel, reference compound] | 7.5 ± 2 nM | 4.7 ± 0.3 nM | 5.7 ± 0.5 nM | 6.9 ± 0.4 nM | 4.8 ± 0.1 nM | – | – | 395 ± 8.7 nM | induces resistance quickly | anticancerogenic activity on different forms of human tumours | cardiotoxicity |
